From patent US20260085062A1, “NOVEL COMPOUNDS AS CK2 INHIBITORS” (Cambridge Enterprise Limited, priority 2022, published 2026)

Key:
CK2α = biological target: T1, CK2α (Homo sapiens, UniProt P68400); experiment: Biochemical assay for inhibitors of CK2α kinase activity (ADP-Glo); details: 0.2 nM CK2α, 50 μM peptide substrate, 15 μM ATP, read-out: Assay 1: CK2α Enzyme IC50
T1 construct: CK2α (residues 2-329) was produced in Escherichia coli BL21 (DE3) for kinase activity screening; His6 (N, cleaved yes); made in house; host or cells: Escherichia coli BL21 (DE3)
T1 sequence (P68400 2-329): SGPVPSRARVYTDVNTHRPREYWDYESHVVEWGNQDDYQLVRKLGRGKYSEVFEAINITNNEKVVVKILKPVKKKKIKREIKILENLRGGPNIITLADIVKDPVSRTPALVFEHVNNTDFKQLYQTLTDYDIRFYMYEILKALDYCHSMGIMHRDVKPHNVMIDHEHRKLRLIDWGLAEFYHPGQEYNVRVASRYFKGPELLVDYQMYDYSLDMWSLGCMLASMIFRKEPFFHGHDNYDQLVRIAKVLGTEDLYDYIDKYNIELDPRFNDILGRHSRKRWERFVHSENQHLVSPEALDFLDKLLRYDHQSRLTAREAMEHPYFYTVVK
Method: The inhibitory activity of putative kinase inhibitors and the potency of selected compounds were determined using ADP-Glo™ assay. The kinase reaction was performed in the presence of excess peptide substrate and ATP at a concentration equivalent to Km. Upon termination of the kinase reaction, remaining ATP was depleted leaving only ADP reaction product, which was converted back to ATP with a coupled luciferin/luciferase reaction. The luminescent output from the coupled reaction was quantified and correlated with the kinase activity. […] Single colonies of the cells were grown in 6×1 L of 2×TY with 100 μg/mL ampicillin at 37° C. […] The cells were incubated overnight at 25° C. then harvested by centrifugation at 4,000 g for 20 minutes. The cell pellets were suspended in 20 mM Tris, 500 mM NaCl, pH 8.0 and lysed using a high pressure homogenizer. Protease inhibitor cocktail tablets (one tablet per 50 mL extract; Roche Diagnostics) and DNase I were then added. The crude cell extract was then centrifuged at 10,000 g for 45 minutes, the supernatant was filtered with a 0.22 μm filter. The soluble supernatant was applied on a Ni Sepharose Fast Flow6 column at pH 8.0, washed and eluted in 20 mM Tris pH 8.0, 500 mM NaCl, 200 mM imidazole. […] The cleaved protein was further purified on a Sepharose Q HP anion-exchange column and the main peak fraction from this column was further purified by gel filtration on a Superdex 75 16/60 HiPrep column equilibrated with Tris 20 mM, pH 8.0, 500 mM NaCl. Pure protein was concentrated to 15 mg/mL and flash frozen in liquid nitrogen. […] The assay was conducted as follows: • 1. […] After 120 minutes, the reaction was stopped by addition of 5 pl ADP-Glo reagent (Promega V9102) and the plate incubated at RT for a further 60 minutes. • 5. 10 μL of Kinase Detection reagent (Promega V9102) was added to assay plate and incubated for a further 30 minutes prior to reading luminescence on an Envision (Perkin-Elmer). Data was analysed to calculate compound IC50and Ki as follows: • 1. […] Percent activity was calculated for each well using: (Test well reading−MEAN100%inhibition control wells)/(MEAN0% inhibition control wells−MEAN100%inhibition control wells). • 5. Morrison Ki was determined using Morrison Ki equation (XL-fit).

CLK2 = biological target: T2, CLK2 (Homo sapiens, UniProt P49760); experiment: Biochemical assay for inhibitors of CLK2 kinase activity (ADP-Glo); details: 20 nM CLK2, 50 μM peptide substrate, 100 μM ATP, read-out: Assay 2: CLK2 Enzyme IC50
T2 construct: purchased Carna Biosciences 04-127
Method: The inhibitory activity of putative kinase inhibitors and the potency of selected compounds were determined using ADP-GloTM assay. The kinase reaction was performed in the presence of excess peptide substrate and ATP at a concentration equivalent to Km. Upon termination of the kinase reaction, remaining ATP was depleted leaving only ADP reaction product, which was converted back to ATP with a coupled luciferin/luciferase reaction. The luminescent output from the coupled reaction was quantified and correlated with the kinase activity. […] The assay was conducted as follows: • 1. […] After 120 minutes, the reaction was stopped by addition of 5 pl ADP-Glo reagent (Promega V9102) and the plate incubated at RT for a further 60 minutes. • 5. 10 μL of Kinase Detection reagent (Promega V9102) was added to assay plate and incubated for a further 30 minutes prior to reading luminescence on an Envision (Perkin-Elmer). Data was analysed to calculate compound IC50and Ki as follows: • 1. […] Morrison Ki was determined using Morrison Ki equation (XL-fit).

intracellular CK2α = biological target: T3, intracellular CK2α (Homo sapiens, UniProt P19784); experiment: Cell-based NanoBRET assay for inhibitor binding to intracellular CK2α; details: HCT116 cells transiently transfected with CSNK2A2-NanoLuc fusion vector; Tracer K-5; 2 h; read-out: Assay 3: NanoBRET ™ assay for binding to intracellular CK2α
T3 construct: host or cells: HCT116 (ATCC CCL-247)
Method: This assay used the NanoBRET™ System (Promega), an energy transfer technique designed to measure molecular proximity in living cells. The assay measured the apparent affinity of test compounds by competitive displacement of a NanoBRET™ tracer reversibly bound to a NanoLucR luciferase CK2α fusion protein in cells. A fixed concentration of tracer was added to cells expressing the desired NanoLucR-CK2α fusion protein to generate a BRET reporter complex. […] Donor emission wavelength (450 nm) and acceptor emission wavelength (610 nm or 630 nm) were measured on the Envision (Perkin-Elmer) and BRET ratio calculated for data analysis: BRET Ratio=(Acceptorsample/Donorsample)×1,000. • 7.

T2 sequence (P49760 whole entry): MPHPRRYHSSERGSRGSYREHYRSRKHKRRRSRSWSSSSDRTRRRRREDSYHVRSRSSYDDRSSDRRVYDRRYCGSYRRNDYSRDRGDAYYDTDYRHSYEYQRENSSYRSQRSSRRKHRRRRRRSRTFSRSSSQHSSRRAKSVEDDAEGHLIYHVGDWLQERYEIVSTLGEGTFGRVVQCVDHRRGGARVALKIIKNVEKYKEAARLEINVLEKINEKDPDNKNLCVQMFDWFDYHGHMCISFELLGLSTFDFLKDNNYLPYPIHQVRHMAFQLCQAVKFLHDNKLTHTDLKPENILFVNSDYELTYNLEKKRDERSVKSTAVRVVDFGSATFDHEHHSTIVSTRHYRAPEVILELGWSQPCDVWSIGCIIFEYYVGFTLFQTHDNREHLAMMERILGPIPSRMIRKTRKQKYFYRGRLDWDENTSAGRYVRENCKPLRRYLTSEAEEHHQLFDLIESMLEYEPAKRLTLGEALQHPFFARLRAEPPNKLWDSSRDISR
T3 sequence (P19784 whole entry, the tested form may be a part): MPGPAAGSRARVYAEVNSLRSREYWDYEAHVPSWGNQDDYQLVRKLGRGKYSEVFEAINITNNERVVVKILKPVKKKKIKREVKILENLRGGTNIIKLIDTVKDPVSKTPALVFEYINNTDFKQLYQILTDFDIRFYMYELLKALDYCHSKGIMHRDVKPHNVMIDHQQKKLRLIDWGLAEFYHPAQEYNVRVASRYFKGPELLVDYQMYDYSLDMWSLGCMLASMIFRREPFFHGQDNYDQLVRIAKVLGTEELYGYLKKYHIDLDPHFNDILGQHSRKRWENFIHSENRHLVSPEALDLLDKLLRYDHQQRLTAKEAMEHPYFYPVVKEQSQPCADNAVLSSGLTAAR

Row | Compound | IC50 (CK2α) [nM] | IC50 (CLK2) [nM] | IC50 (intracellular CK2α) [nM]
1 | Cc1cn(-c2cc(NCCCNC(=O)CCNCc3ccc(-c4ccccc4)c(Cl)c3)c3cn[nH]c3c2)cn1 [Example 29, 3-(((2-chloro-[1,1′-biphenyl]-4-yl)methyl)amino)-N-(3-((6-(4-methyl-1H-imidazol-1-yl)-1H-indazol-4-yl)amino)propyl)propanamide] | 22.1 | 649 | 2090
2 | O=C(CCNCc1ccc(-c2ccccc2)c(Cl)c1)NCCCNc1cc(-c2cc[n+]([O-])cc2)cc2[nH]ncc12 [Example 30, 4-(4-((3-(3-(((2-chloro-[1,1′-biphenyl]-4-yl)methyl)amino)propanamido)propyl)amino)-1H-indazol-6-yl)pyridine 1-oxide] | 0.99 | 2560 | 816
3 | O=C(CCNCc1n[nH]c(-c2ccccc2)c1Cl)NCCCNc1cc(-n2cnnc2)cc2[nH]ncc12 [Example 34, N-(3-((6-(4H-1,2,4-triazol-4-yl)-1H-indazol-4-yl)amino)propyl)-3-(((4-chloro-5-phenyl-1H-pyrazol-3-yl)methyl)amino)propanamide] | 3.32 | 70.8 | 9890
4 | O=C(CCNCc1cccc(CO)c1)NCCCNc1cc(-n2cnnc2)cc2[nH]ncc12 [Example 35, N-(3-((6-(4H-1,2,4-triazol-4-yl)-1H-indazol-4-yl)amino)propyl)-3-((3-(hydroxymethyl)benzyl)amino)propanamide] | 17.5 | 112 | > 50000
5 | Cn1c(CNCCC(=O)NCCCNc2cc(-n3cnnc3)cc3[nH]ncc23)cc2ccc(Cl)cc21 [Example 36, N-(3-((6-(4H-1,2,4-triazol-4-yl)-1H-indazol-4-yl)amino)propyl)-3-(((6-chloro-1-methyl-1H-indol-2-yl)methyl)amino)propanamide] | 1.39 | 48.9 | 1400
6 | O=C(CCNCc1cc2ccc(Cl)cc2[nH]1)NCCCNc1cc(-n2cnnc2)cc2[nH]ncc12 [Example 37, N-(3-((6-(4H-1,2,4-triazol-4-yl)-1H-indazol-4-yl)amino)propyl)-3-(((6-chloro-1H-indol-2-yl)methyl)amino)propanamide] | 0.78 | 30.7 | 960
7 | N#Cc1cc(CNCCC(=O)NCCCNc2cc(-n3cnnc3)cc3[nH]ncc23)ccc1OC1CCC1 [Example 39, N-(3-((6-(4H-1,2,4-triazol-4-yl)-1H-indazol-4-yl)amino)propyl)-3-((3-cyano-4-cyclobutoxybenzyl)amino)propanamide] | 0.28 | 63.3 | 2080
8 | O=C(CCNCc1cccc(CCO)c1)NCCCNc1cc(-n2cnnc2)cc2[nH]ncc12 [Example 40, N-(3-((6-(4H-1,2,4-triazol-4-yl)-1H-indazol-4-yl)amino)propyl)-3-((3-(2-hydroxyethyl)benzyl)amino)propanamide] | 9.06 | 87.5 | > 50000
9 | O=C(CCNCc1ccc(OC2CCC2)c(CO)c1)NCCCNc1cc(-n2cnnc2)cc2[nH]ncc12 [Example 41, N-(3-((6-(4H-1,2,4-triazol-4-yl)-1H-indazol-4-yl)amino)propyl)-3-((4-cyclobutoxy-3-(hydroxymethyl)benzyl)amino)propanamide] | 0.58 | 78.1 | 7620
10 | O=C(CCNCc1cccc(OCCO)c1)NCCCNc1cc(-n2cnnc2)cc2[nH]ncc12 [Example 42, N-(3-((6-(4H-1,2,4-triazol-4-yl)-1H-indazol-4-yl)amino)propyl)-3-((3-(2-hydroxyethoxy)benzyl)amino)propanamide] | 6.94 | 83.8 | > 50000
11 | O=C(CCNCc1ccc(OC(F)(F)F)c(CO)c1)NCCCNc1cc(-n2cnnc2)cc2[nH]ncc12 [Example 44, N-(3-((6-(4H-1,2,4-triazol-4-yl)-1H-indazol-4-yl)amino)propyl)-3-((3-(hydroxymethyl)-4-(trifluoromethoxy)benzyl)amino)propanamide] | 1.46 | 39.6 | 16800

Continued by falling IC50 (CK2α), values first:

Row | IC50 (CK2α) [nM] | IC50 (CLK2) [nM] | IC50 (intracellular CK2α) [nM] | Compound
12 | 0.62 | 38.4 | 20200 | O=C(CCNCc1cc(Cl)cc(CO)c1)NCCCNc1cc(-n2cnnc2)cc2[nH]ncc12 [Example 43, N-(3-((6-(4H-1,2,4-triazol-4-yl)-1H-indazol-4-yl)amino)propyl)-3-((3-chloro-5-(hydroxymethyl)benzyl)amino)propanamide]
13 | 0.54 | 107 | 70.6 | O=C(CCNCc1ccc(-c2ccccc2)c(Cl)c1)NCCCNc1cc(-c2cnoc2)cc2[nH]ncc12 [Example 28, 3-(((2-chloro-[1,1′-biphenyl]-4-yl)methyl)amino)-N-(3-((6-(isoxazol-4-yl)-1H-indazol-4-yl)amino)propyl)propanamide]
14 | 0.53 | 121 | 792 | Cn1c(CNCCC(=O)NCCCNc2cc(-n3cnnc3)cc3[nH]ncc23)cc2cc(C(F)(F)F)ccc21 [Example 38, N-(3-((6-(4H-1,2,4-triazol-4-yl)-1H-indazol-4-yl)amino)propyl)-3-(((1-methyl-5-(trifluoromethyl)-1H-indol-2-yl)methyl)amino)propanamide]
15 | 0.48 | 77.8 | 452 | O=C(CCNCc1ccc(OC(F)(F)F)c(Cl)c1)NCCCNc1cc(-n2cnnc2)cc2[nH]ncc12 [Example 33, N-(3-((6-(4H-1,2,4-triazol-4-yl)-1H-indazol-4-yl)amino)propyl)-3-((3-chloro-4-(trifluoromethoxy)benzyl)amino)propanamide]
16 | 0.47 | 75.9 | 17.7 | O=C(CCNCc1ccc(OC(F)(F)F)c(Cl)c1)NCCCNc1cc(-c2cnns2)cc2[nH]ncc12 [Example 32, N-(3-((6-(1,2,3-thiadiazol-5-yl)-1H-indazol-4-yl)amino)propyl)-3-((3-chloro-4-(trifluoromethoxy)benzyl)amino)propanamide]
17 | 0.32 | 526 | 753 | O=C(CCNCc1ccc(OC(F)(F)F)c(Cl)c1)NCCCNc1cc(-c2cc[nH]c(=O)c2)cc2[nH]ncc12 [Example 31, 3-((3-chloro-4-(trifluoromethoxy)benzyl)amino)-N-(3-((6-(2-oxo-1,2-dihydropyridin-4-yl)-1H-indazol-4-yl)amino)propyl)propanamide]
